Experimental data from patent US20230348454A1, “COMPOUNDS AS MODULATORS OF BIS-PHOSPHOGLYCERATE MUTASE FOR THE TREATMENT OF SICKLE CELL DISEASE” (Genzyme Corporation, priority 2020, published 2023).
Where two headings read alike, the source gives them in different places.

How the values were obtained:
[1] = target: T1, hBPGM (Homo sapiens, UniProt P07738); assay: BPGM synthase assay; type: biochemical; details: Table 6; read-out: huBPGM: synthase Enzyme IC50
T1 sequence (P07738 1-259): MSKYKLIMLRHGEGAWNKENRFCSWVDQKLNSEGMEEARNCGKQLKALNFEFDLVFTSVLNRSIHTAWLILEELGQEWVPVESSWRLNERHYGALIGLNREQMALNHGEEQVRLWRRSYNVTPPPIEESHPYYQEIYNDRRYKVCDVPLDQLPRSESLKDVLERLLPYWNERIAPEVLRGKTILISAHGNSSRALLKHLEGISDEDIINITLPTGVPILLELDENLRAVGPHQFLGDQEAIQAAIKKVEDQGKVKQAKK
In short: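 The enzyme solution held 5 nM BPGM with 0.4 U/mL coupling GAPDH in Tris pH 7.4, 3.23 mM KH2PO4, 1 mM DTT, and compounds were pre-incubated 30 min at RT. Substrate solution (2 mM NAD, 20 μM 3PG, 800 μM GAP) reacted 60 min before a koningic acid quench. NADH fluorescence (360/460) and diaphorase/resazurin-derived resorufin (544/590) were read.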

[2] = target: T2, human Bisphosphoglycerate mutase (hBPGM) (Homo sapiens, UniProt P07738); assay: BPGM phosphatase assay; type: biochemical
T2 sequence (P07738 1-259): T1 sequence (P07738 1-259)
Protocol: The following materials were used in this assay: Tris buffer (50 mM Tris, 0.01% Tween 20, pH 7.4); cyclohexylammonium salt of 2,3-BPG (stock solution of 500 mM in ultapure distilled water; human Bisphosphoglycerate mutase (hBPGM; stock solution of 110 μM in Standard Buffer); 3-Phosphoglyceric acid (3-PG; stock solution of 100 mM in ultrapure distilled water); 384-Well Polystyrene Plates (Fisherbrand™, Catalog No.: 12-566-625); BIOMOL GREEN REAGENT (Enzo life sciences, BML-AK111-0250); and 1 mM DMSO stock of exemplary compounds.
A 3-PG enzyme mix solution (final enzyme concentration 62.5 nM, 3-PG concentration at 50 µM, 14.5 uL) was added to onto a 384-well clear plate. Solutions of the test compounds were then added to the plate and the DMSO content was normalized across the plate. The plate was incubated at RT for 15 min. Next, the substrate 2,3-BPG (5 μL) was added to all the wells, and the plate was sealed and incubated for 24 hr at RT. After incubation, BIOMOL green dye (40 μL) was added to all the wells, the plate was shaken to mix, and the plate was incubated at RT for 20-30 min. Absorbance measurements were recorded at 620 nm.

[3] = Table 6, read-out: huBPGM: phosphatase Enzyme EC50
[4] = Table 4, read-out: hBPGM Phosphatase EC50

SMILES | IC50 [1] [nM] | EC50 [2, 3] [nM] | EC50 [2, 4] [nM]
COC(=O)NCc1nc(C)c(-c2csc(-c3ccc(-c4nnn[nH]4)cc3)n2)s1 [Example 205] | 340 | 440 | 
Cc1nc(COc2ncccn2)sc1-c1cccc(-c2cc[n+]([O-])cc2)n1 [Example 139] | > 25000 | > 25000 | 
COC(=O)NCc1nc(C)c(-c2csc(-c3cc(F)c(O)c(F)c3F)n2)s1 [Example 187] | 300 | 480 | 
Cc1cnc(OCc2nc(C)c(-c3cccc(-c4cc(F)c5nn[nH]c5c4F)n3)s2)nc1 [compound 8] | 17 | 40 | 40
Cc1nc(COCC(=O)N(C)C)sc1-c1csc(-c2cc(F)c(O)c(F)c2F)n1 [Example 160] | 460 | 520 | 
COC(=O)NCc1nc(C)c(-c2csc(-c3ccc4[nH]nnc4c3F)n2)s1 [Example 156] | 200 | 150 | 
Cc1nc(CNC(=O)C(C)(C)C)sc1-c1csc(-c2cc(F)c(O)c(F)c2)c1 [Example 197] | 3100 | 400 | 
Cc1nc(COc2ccccn2)sc1-c1csc(-c2cc3nn[nH]c3c(F)c2F)n1 [Example 176] | 3400 | 20 | 
COC(=O)NCc1nc(C)c(-c2csc(-c3ccc(C(=O)Nc4nnn[nH]4)cc3)n2)s1 [Example 207] | 6500 | 8200 | 
Cc1nc(COC(=O)N(C)C)sc1-c1csc(-c2cc(F)c(O)c(F)c2F)n1 [Example 137] | 230 | 200 | 
Cc1nc(COc2ccccn2)sc1-c1csc(-c2cc(F)c(O)c(F)c2)n1 [Example 192] | 1000 | 490 | 
Cc1nc(CNC(=O)c2cccnn2)sc1-c1csc(-c2cc(F)c(O)c(F)c2F)n1 [Example 186] | 240 | 350 | 
Cc1nc(CNC(=O)c2cccnn2)sc1-c1csc(-c2cc(F)c(O)c(F)c2)n1 [Example 201] | 410 | 180 | 
Cc1nc(CNC(=O)C(C)CN(C)C)sc1-c1cccc(-c2cc(F)c3nn[nH]c3c2F)n1 (centres unmarked) [Example 138] | 960 | > 25000 | 
Cc1nc(COCC(=O)N2CCCC2)sc1-c1csc(-c2cc(F)c(O)c(F)c2F)n1 [Example 127] | 430 | 380 | 
COC(=O)NCc1nc(C)c(-c2csc(-c3cc(F)c(O)c(F)c3)n2)s1 [Example 191] | 1100 | 1600 | 
Cc1nc(COCC(=O)N(C)C)sc1-c1cccc(-c2cc(F)c3nn[nH]c3c2)n1 [Example 163] | 170 | 260 | 
COc1cnc(OCc2nc(C)c(-c3cccc(-c4cc(F)c5nn[nH]c5c4)n3)s2)nc1 [Example 142] | 260 | 40 | 
Cc1nc(COc2ncccn2)sc1-c1cccc(-c2cc(F)c3[nH]nnc3c2)c1 [Example 177] | 440 | 250 | 
Cc1nc(COC(=O)N(C)C)sc1-c1cccc(-c2cc(F)c3nn[nH]c3c2)n1 [Example 167] | 130 | 75 | 
COC(=O)NCc1nc(C)c(-c2csc(-c3ccc(C(=O)NS(C)(=O)=O)c(O)c3)n2)s1 [Example 206] | 1400 | 1200 | 
Cc1nc(COC(=O)N(C)C)sc1-c1cccc(-c2cc(F)c(O)c(F)c2F)n1 [Example 169] | 560 | 330 | 
Cc1nc(COc2ncccn2)sc1-c1cccc(-c2ccc(O)c(C#N)c2)n1 [Example 159] | 290 | 1800 | 
Cc1nc(COc2cccnn2)sc1-c1csc(-c2cc(F)c3[nH]nnc3c2)n1 [compound 7] |  | 55 | 55
Cc1nc(COc2ncccn2)sc1-c1cccc(-c2cc(F)c(O)c(F)c2F)c1 [Example 148] | 1200 | 250 | 
Cc1nc(CNC(=O)c2cccnn2)sc1-c1csc(-c2cc(F)c(O)c(F)c2)c1 [Example 194] | 820 | 370 | 
Cc1nc(COCC(=O)N2CCN(CCO)CC2)sc1-c1csc(-c2cc(F)c(O)c(F)c2F)n1 [Example 104] | 2300 | > 25000 | 

SMILES | IC50 [1] [nM] | EC50 [2, 3] [nM] | EC50 [2, 4] [nM]
COC(=O)NCc1nc(C)c(-c2csc(-c3cc(F)c(O)cc3F)n2)s1 [Example 178] | 1700 | 1700 | 
Cc1ccnc(OCc2nc(C)c(-c3cccc(-c4cc(F)c5nn[nH]c5c4)n3)s2)n1 [Example 153] | 81 | 60 | 
Cc1nc(CNc2ncccn2)sc1-c1cccc(-c2cc(F)c3nn[nH]c3c2F)n1 [Example 126] | 21 | > 25000 | 
COC(=O)NCc1nc(C)c(-c2cccc(-c3cc(F)c(O)c(F)c3F)n2)s1 [Example 171] | 810 | 1900 | 
CC(=O)NCc1nc(C)c(-c2csc(-c3cc(F)c4[nH]nnc4c3)n2)s1 [Example 103] | 930 | > 25000 | 
Cc1nc(CNC(=O)N2CCN(C)CC2)sc1-c1csc(-c2cc(F)c(O)c(F)c2F)n1 [Example 108] | 14000 |  | 
COCc1nc(C)c(-c2cccc(-c3cc(F)c4nn[nH]c4c3F)n2)s1 [Example 34] | 250 |  | 
COc1c(F)cc(-c2cccc(-c3sc(COc4ncccn4)nc3C)n2)c(F)c1C#N [Example 228] | > 25000 |  | 
Cc1nc(COc2ncccn2)sc1-c1cccc(-c2ccc3[nH]c(=O)oc3c2)n1 [Example 117] | > 25000 |  | 
Cc1nc(COC(=O)N2CC(O)C2)sc1-c1cccc(-c2cc(F)c3nn[nH]c3c2F)n1 [Example 59] | 20 |  | 
Cc1nc(COc2ncccn2)sc1-c1nc(-c2cc(O)c(C#N)c(F)c2)cs1 [Example 71] | 300 |  | 
Cc1nc(COCC(=O)N2CCC(O)C2)sc1-c1csc(-c2cc(F)c3[nH]nnc3c2F)n1 (centres unmarked) [Example 78] | 1500 |  | 
Cc1nc(COc2ncccn2)sc1-c1cccc(-c2ccc(-c3n[nH]c(=O)o3)cc2)n1 [Example 161] | > 25000 |  | 
Cc1nc(COCC(C)(C)O)sc1-c1cccc(-c2cc(F)c(O)c(F)c2F)n1 [Example 218] | 410 |  | 
Cc1nc(CNC(=O)c2cccnn2)sc1-c1nc(-c2cc(F)c3nn[nH]c3c2F)cs1 [Example 43] | 14 |  | 
Cc1nc(COC(C)C)sc1-c1cccc(-c2cc(F)c3nn[nH]c3c2F)n1 [Example 236] | 110 |  | 
Cc1nc(CN(C)C)sc1-c1cccc(-c2cc(F)c3nn[nH]c3c2F)n1 [Example 52] | 390 |  | 
Cc1nc(COC(C)(C)C)sc1-c1cccc(-c2cc(F)c3nn[nH]c3c2F)n1 [Example 235] | 130 |  | 
Cc1nc(COc2ccccn2)sc1-c1ccnc(-c2cc(F)c3nn[nH]c3c2F)n1 [Example 41] | 75 |  | 
Cc1nc(COc2ncccn2)sc1-c1cccc(Nc2ccc3[nH]nnc3c2)n1 [Example 229] | > 25000 |  | 
Cc1nc(CNC(=O)c2ccn(C)n2)sc1-c1csc(-c2cc(F)c(O)c(F)c2F)n1 [Example 106] | 330 |  | 
Cc1nc(COc2ncccn2)sc1-c1cccc(-c2ccn3c(O)nnc3c2)n1 [Example 149] | 4500 |  | 
Cc1nc(COc2ncccn2)sc1-c1ccnc(-c2cc(F)c3nn[nH]c3c2F)n1 [Example 220] | 27 |  | 
Cc1nc(COCC(=O)C2CCNCC2)sc1-c1csc(-c2cc(F)c(O)c(F)c2F)n1 [Example 94] | > 25000 |  | 
Cc1nc(COC(=O)N(C)C)sc1-c1csc(-c2cc(F)c3[nH]nnc3c2)n1 [Example 109] | 160 |  | 
Cc1nc(COc2ncc(Cl)cn2)sc1-c1cccc(-c2cc(F)c3nn[nH]c3c2)n1 [Example 140] |  | 30 | 
